Experimental data from patent publication US20160304577A1, “GLYCOSYLATED GLYCOPHORIN PEPTIDES” (GLYCOTOPE GMBH, priority 2013, published 2016).
Entries after “also recorded” stand apart in the source; their conditions may differ. No end group written: not given here.

Key:
[1] = test system: dendritic cells; assay: Effect of antigen processing inhibitors on presentation of TFα derived from aGPA (flow cytometry, Nemod-TF1); assay type: cell-based, human; conditions: DCs treated with inhibitor of lysosomal acidification prior to loading with aGPA
Method: DCs were pretreated with indicated concentrations of chloroquine (a) and ammonium chloride (b) before aGPA was added. Presentation of TFα was analyzed by flow cytometry using Nemod-TF1. Data are presented as the percentage of the relative presentation which was calculated according to the following formula: (percentage of positive cells incubated with antigen processing inhibitors)/(percentage of positive cells of untreated cells)×(100)). The means of one experiment performed in duplicates are shown.
In order to characterize the processing pathway of aGPA, dendritic cells were treated with inhibitors of lysosomal acidification, chloroquine and ammonium chloride (MHC class II processing) prior to loading. […] These findings verify that aGPA is processed in the cell before TFα is presented on the cell surface.

[2] = test system: DCs; assay: Presentation of biotin-conjugated GPA-derived peptides on DCs, fluorescence-labeled streptavidin, flow cytometry; assay type: cell-based, human
Method: DCs were loaded with the biotin-conjugated peptides GPA1-9(3TF), GPA9-25(4TF), GPA9-25(6TF), GPA26-43(2TF), GPA34-55(4TF), GPA41-55(3TF), GPA45-55(2TF), GPA48-55(1TF) and GPA48-63(1TF). Presentation was determined by fluorescence-labeled streptavidin. The subpopulations of CD80+CD209+, CD80+CD209− and CD80−CD209− mature DCs were analyzed separately. Mean percentages+SD of one experiment performed in duplicates are shown.
DCs were loaded with the biotin-conjugated peptides. Presentation was determined by fluorescence-labeled streptavidin. The subpopulations CD80+CD209+, CD80+CD209- and CD80−CD209− mature DCs were analyzed separately. Mean percentages+SD of one experiment performed in triplicates are shown.
For that reason the GPA-derived TF-α glycosylated peptides GPA1-9(3TF), GPA9-25(4TF), GPA9-25(6TF), GPA26-43(2TF), GPA34-55(4TF), GPA41-55(3TF), GPA45-55(2TF), GPA48-55(1TF) and GPA48-63(1TF) were employed.
By using four different glycosylation variants of GPA26-43, it was aimed to investigate the effect of TFα-glycosylation on the presentation in more detail.

[3] = test system: TFα-specific T cells; assay: IFN-γ ELISPOT, restimulation of B. ovatus-primed T cells with peptide-loaded DCs; assay type: cell-based, human; conditions: T cells primed with TFα-positive B. ovatus strain
Method: PBMCs of a healthy donor were primed with DCs loaded with TFα positive B. ovatus (BO+). Restimulation with GPA26-43(2TF) and GPA34-55(4TF) was analyzed by IFN-γ ELISPOT. The mean numbers of IFN-γ+spots+SEM of one experiment performed in triplicates is shown.
In order to analyze whether DCs loaded with peptide GPA26-43(2TF) or GPA34-55(4TF) can activate TFα-specific T cells, they were used for restimulation of T cells primed with a TFα-positive B. ovatus strain. Restimulation was detected by an IFN-γ ELISPOT assay. […] Since TFα is the only overlapping structure between the TFα-positive B. ovatus strain and the TFα-glycosylated GPA-derived peptides GPA26-43(2TF) and GPA34-55(4TF), it is obvious that the restimulated T cells were TFα-specific. […] This immune response, when elicited in a human being, can protect against cells carrying said carbohydrate structure. In the case of tumor-associated carbohydrate antigens such as TFα, vaccination against and treatment of cancer comprising cells carrying said carbohydrate antigen is possible with these glycosylated glycophorin peptides. Therefore, based on this experiment, GPA-derived TF-α glycosylated peptides are proposed for the use of treating or preventing cancer in human.

[4] = test system: dendritic cells; assay: Flow cytometry of TFα presentation on dendritic cells loaded with aGPA or GPA (Nemod-TF1, Nemod-TF2); assay type: cell-based, human
Method: GPA- and aGPA-loaded cells were stained with Nemod-TF1 and Nemod-TF2 and analyzed by flow cytometry. The subpopulations of CD80+CD209+, CD80+CD209− and CD80−CD209− cells were analyzed separately. The mean percentages of positive cells+SD of one experiment performed in duplicates are shown.
DCs were loaded with aGPA and GPA for indicated time periods. Presentation of TFα was analyzed on the subpopulations of CD80+CD209+ (a), CD80+CD209− (b) and CD80−CD209− (c) DCs by flow cytometry using Nemod-TF1. Data are presented as mean percentage of positive cells±SD of one experiment performed in duplicates.
In order to analyze the antigen presentation of aGPA in more detail, dendritic cells loaded with aGPA and GPA were analyzed by flow cytometry using anti-TFα antibodies and for co-staining anti-CD80 and anti-CD209 antibodies.
In order to test whether aGPA is unspecifically attached to the cell surface of DCs, aGPA was added 10 min prior to the analysis of surface presentation with the TFα-specific antibody Nemod-TF1 and compared to TFα-presentation after loading times of 1 and 2 d. […] This is important since the presentation on MHC proteins is crucial for activation of TF-α specific T cells.

[5] = test system: TFα-specific T cells; assay: IFN-γ ELISPOT, second restimulation of TFα-specific T cells with aGPA- or GPA-loaded dendritic cells; assay type: cell-based; conditions: T cells primed with TFα positive B. ovatus strain and restimulated with lysate of TFα positive human cell line
Method: PBMCs of a healthy donor were twice primed with DCs loaded with a TFα positive B. ovatus strain (BO+). Restimulation with DCs loaded with lysate of a TFα positive (HC+) or TFα negative (HC−) human cell line was analyzed by IFN-γ ELISPOT. T cells restimulated with TFα positive cells were further cultivated and restimulated in a second round with aGPA- and GPA-loaded DCs, which was analyzed by IFN-γ ELISPOT. The mean numbers of IFN-γ+spots+SEM of one experiment performed in triplicates (1st restimulation) or of four replicates (2nd restimulation) are shown. IFN-γ+spots of PBMCs without restimulation were subtracted. Statistical analysis was performed using 1 way ANOVA (***: P<0.001).
In order to analyze whether asialoglycophorin A (aGPA)-loaded dendritic cells (DCs) have the potential to activate TFα-specific T cells, a T cell culture, which was primed with a TFα positive B. ovatus strain and restimulated with lysate of a TFα positive human cell line, was restimulated in a second round with dendritic cells loaded with either aGPA or glycophorin A (GPA).

`Cl.N` [ammonium chloride] was tested, and the “effect on presentation of TFα derived from aGPA” value [1] was “blocked the presentation of TFα”.

In the case of `CCN(CC)CCCC(C)Nc1ccnc2cc(Cl)ccc12` (stereo not shown) [chloroquine], the “effect on presentation of TFα derived from aGPA” value [1] is reported as “blocked the presentation of TFα”.

With “GPA1-9(3TF): biotin-conjugated GPA-derived TF-α glycosylated peptide (SSTTGVAMH; also: 3 TF-α glycans, sites not given here, biotin-conjugated, site not given here)” the “presentation of peptide on DCs (percentage of positive cells)” value [2] was “strongest presentation on DCs”.

With “GPA26-43(1TFaa33): glycosylation variant of GPA26-43, biotin-conjugated peptide (NDTHKRDT(TF‑α)YAATPRAHEV; also: biotin-conjugated, site not given here)” the “presentation of peptide on DCs (percentage of positive cells)” value [2] was “presented at a similar percentage”.

With “GPA26-43(1TFaa37): glycosylation variant of GPA26-43, biotin-conjugated peptide (NDTHKRDTYAAT(TF‑α)PRAHEV; also: biotin-conjugated, site not given here)” the “presentation of peptide on DCs (percentage of positive cells)” value [2] was “less effectively presented than GPA26-43(1TFaa33) and GPA26-43, but more effectively than GPA26-43(2TF)”.

With “GPA26-43(2TF): biotin-conjugated GPA-derived TF-α glycosylated peptide (NDTHKRDTYAATPRAHEV; also: 2 TF-α glycans, sites not given here, biotin-conjugated, site not given here)” the “presentation of peptide on DCs (percentage of positive cells)” value [2] was “strongest presentation on DCs; also recorded: better presentation on DCs than GPA34-55(4TF); also recorded: found to be presented on DCs” and the “activation of T cells on restimulation with peptide-loaded DCs (IFN-γ ELISPOT)” value [3] was “stronger activation of T cells compared to DCs loaded with GPA34-55(4TF)”.

For “GPA26-43: the unglycosylated GPA26-43, biotin-conjugated peptide (NDTHKRDTYAATPRAHEV; also: biotin-conjugated, site not given here) [reference compound]”, the “presentation of peptide on DCs (percentage of positive cells)” value [2] was “presented at a similar percentage”.

With “GPA48-63(1TF): biotin-conjugated GPA-derived TF-α glycosylated peptide (VRTVYPPEEETGERVQ; also: 1 TF-α glycan, site not given here, biotin-conjugated, site not given here)” the “presentation of peptide on DCs (percentage of positive cells)” value [2] was “strongest presentation on DCs”.

B1: asialoglycophorin A (protein)
chain: SSTTGVAMHTSTSSSVTKSYISSQTNDTHKRDTYAATPRAHEVSEISVRTVYPPEEETGERVQLAHHFSEPEITLIIFGVMAGVIGTILLISTGIRRLIKKSPSDVKPLPSPDTDVPLSSVEIENPETSDQ
notes: asialoglycophorin A (aGPA)
In the case of B1, the “percentage of Nemod-TF1- and Nemod-TF2-positive cells (TFα presentation) on loaded DCs” value ([4]; CD80+CD209+, CD80+CD209− and CD80−CD209− DCs) is reported as “increased percentage of Nemod-TF1- and Nemod-TF2-positive cells compared to GPA-loaded cells”, the “TFα presentation on DCs when added just before staining (unspecific attachment)” value ([4]; added 10 min prior to analysis with Nemod-TF1, compared to loading times of 1 and 2 d, all three DC subpopulations) is reported as “no presentation was found” and the “activation of T cells on restimulation with loaded dendritic cells (IFN-γ ELISPOT)” value [5] is reported as “visible activation of T cells”.

B2: glycophorin A (protein)
chain: SSTTGVAMHTSTSSSVTKSYISSQTNDTHKRDTYAATPRAHEVSEISVRTVYPPEEETGERVQLAHHFSEPEITLIIFGVMAGVIGTILLISTGIRRLIKKSPSDVKPLPSPDTDVPLSSVEIENPETSDQ
notes: glycophorin A (GPA)
In the case of B2, the “activation of T cells on restimulation with loaded dendritic cells (IFN-γ ELISPOT)” value [5] is reported as “almost no restimulation”.
